Here are results for 20 compounds from ChEMBL document CHEMBL1145152, “Design, synthesis, and antifolate activity of new analogues of piritrexim and other diaminopyrimidine dihydrofolate reductase inhibitors with omega-carboxyalkoxy or omega-carboxy-1-alkynyl substitution in the side chain” (J Med Chem, 2005).

Molecules are shown by their SMILES.

Test [1] can be described thus: Selectivity index measured as IC50(Rat)/IC50(Mycobacterium avium).
Test [2] concerns the target T1, Bifunctional dihydrofolate reductase-thymidylate synthase (Toxoplasma gondii, UniProt Q07422).
T1 sequence (Q07422 whole entry): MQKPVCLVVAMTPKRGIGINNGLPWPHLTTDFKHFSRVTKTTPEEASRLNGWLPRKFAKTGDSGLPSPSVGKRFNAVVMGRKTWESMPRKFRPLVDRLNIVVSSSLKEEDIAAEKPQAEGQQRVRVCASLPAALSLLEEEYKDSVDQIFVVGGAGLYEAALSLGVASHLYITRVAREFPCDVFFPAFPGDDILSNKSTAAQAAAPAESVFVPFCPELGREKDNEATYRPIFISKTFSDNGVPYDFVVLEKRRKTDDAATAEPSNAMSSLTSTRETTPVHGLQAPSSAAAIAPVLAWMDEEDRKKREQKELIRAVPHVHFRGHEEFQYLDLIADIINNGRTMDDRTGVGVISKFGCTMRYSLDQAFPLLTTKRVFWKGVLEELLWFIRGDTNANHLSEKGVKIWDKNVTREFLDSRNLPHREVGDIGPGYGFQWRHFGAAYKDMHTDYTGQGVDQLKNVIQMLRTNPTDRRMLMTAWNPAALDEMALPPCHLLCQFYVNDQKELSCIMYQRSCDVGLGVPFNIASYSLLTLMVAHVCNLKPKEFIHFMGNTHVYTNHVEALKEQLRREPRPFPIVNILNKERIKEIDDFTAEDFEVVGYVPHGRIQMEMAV
Description: Inhibitory concentration against Toxoplasma gondii DHFR

Test [3] addresses T2, Dihydrofolate reductase (Pneumocystis carinii, UniProt P16184).
T2 sequence (P16184 whole entry): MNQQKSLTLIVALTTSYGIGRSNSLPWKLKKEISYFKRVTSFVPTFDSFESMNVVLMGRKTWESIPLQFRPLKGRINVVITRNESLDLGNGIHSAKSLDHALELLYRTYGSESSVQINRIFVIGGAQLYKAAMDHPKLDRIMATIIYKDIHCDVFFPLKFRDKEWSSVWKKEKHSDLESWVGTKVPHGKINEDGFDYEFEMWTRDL
Description: Inhibitory concentration against Pneumocystis carinii DHFR

The target in test [4] is T3, Dihydrofolate reductase (Rattus norvegicus, UniProt Q920D2).
T3 sequence (Q920D2 whole entry): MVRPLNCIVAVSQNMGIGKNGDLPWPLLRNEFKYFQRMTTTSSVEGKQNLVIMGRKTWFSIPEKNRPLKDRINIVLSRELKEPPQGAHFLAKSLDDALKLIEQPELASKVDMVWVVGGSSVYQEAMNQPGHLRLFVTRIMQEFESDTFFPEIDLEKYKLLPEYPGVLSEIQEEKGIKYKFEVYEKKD
Description: Inhibitory concentration against rat DHFR

Test [5] has as its target T4, Dihydrofolate reductase (Mycobacterium avium, UniProt O30463).
T4 sequence (O30463 whole entry): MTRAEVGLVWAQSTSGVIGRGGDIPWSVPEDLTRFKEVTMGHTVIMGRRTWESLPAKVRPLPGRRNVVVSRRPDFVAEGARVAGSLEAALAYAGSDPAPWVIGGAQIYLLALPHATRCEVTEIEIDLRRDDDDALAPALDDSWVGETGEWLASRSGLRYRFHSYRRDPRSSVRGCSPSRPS
Description: Inhibitory concentration against Mycobacterium avium DHFR

Test [6] is described as follows: Concentration causing inhibition of CCRF-CEM human leukemic lymphoblasts growth in 72 hr culture. Format: functional, cell-based.
A short description of test [7]: Concentration causing inhibition of CCRF-CEM human leukemic lymphoblasts growth in a 72 hr culture. Format: functional, cell-based.

In test [1], `COc1ccc(I)cc1Cc1cnc2nc(N)nc(N)c2c1C` yielded a Selectivity index of 5.4. In addition, the IC50 (as a rule, the concentration needed to halve the response being measured) is 4.1 nM in test [2], 5.8 nM in test [3], 5 nM in test [4] and 0.92 nM in test [5].
For `COc1ccc(OCc2ccccc2)c(Cc2cnc3nc(N)nc(N)c3c2C)c1`, in that order: 20, 16 nM, 96 nM, 170 nM and 8.6 nM.
`COc1ccc(C#CCCC(=O)O)cc1Cc1cnc2nc(N)nc(N)c2c1C` registered a Selectivity index in test [1] of 5.6. Besides, the IC50 in test [2] stood at 0.46 nM; in test [3], 0.097 nM; in test [4] it was 0.32 nM; in test [5] it was 0.057 nM.
The compound `Nc1nc(N)c2nc(CN3c4ccccc4C=Cc4c(C#CCCCC(=O)O)cccc43)cnc2n1` displayed a Selectivity index in test [1] of 210. For the same compound, the concentration for half-maximal inhibition (IC50) in test [2] worked out at 21 nM; in test [3], 12 nM; in test [4], 1300 nM; in test [5] it was 6.3 nM.
For `COc1ccc(C#CCCC(=O)O)c(Cc2cnc3nc(N)nc(N)c3c2C)c1`, the Selectivity index in test [1] was found to be 96. In addition, the half-maximal inhibitory concentration (IC50) came to 4.1 nM in test [2], 0.65 nM in test [3], 55 nM in test [4] and 0.57 nM in test [5].
In turn, `COc1ccc(C#CCCCCC(=O)O)cc1Cc1cnc2nc(N)nc(N)c2c1C` came in with a Selectivity index in test [1] of 5.8. In addition, the IC50 is 3.2 nM in test [2], 1.8 nM in test [3], 4 nM in test [4] and 0.69 nM in test [5].
Compound `COc1ccc(OCCCC(=O)O)cc1Cc1cnc2nc(N)nc(N)c2c1C` displayed a Selectivity index in test [1] of 8.5. The IC50 is 1.9 nM in test [2]; 3700 nM in test [6]; 0.43 nM in test [3]; 2.2 nM in test [4]; 0.26 nM in test [5].
Regarding `COc1ccc(C#CCCCC(=O)O)c(Cc2cnc3nc(N)nc(N)c3c2C)c1`, in test [1], the Selectivity index is 18. The IC50 in test [2] came out at 5.8 nM; in test [6], 2800 nM; in test [3], 1.2 nM; in test [4], 24 nM; in test [5], 1.3 nM.
`CCOC(=O)CCCCOc1ccc(OC)c(Cc2cnc3nc(N)nc(N)c3c2C)c1` had a Selectivity index in test [1] of 1.5. Also, the half-inhibitory concentration (IC50) amounted to 11 nM in test [2], 28 nM in test [3], 14 nM in test [4] and 9.4 nM in test [5].
The corresponding values for `COc1ccc(OCCCCC(=O)O)cc1Cc1cnc2nc(N)nc(N)c2c1C` are 7.5, 2.3 nM, 0.51 nM, 2.2 nM and 0.29 nM.
For `CCOC(=O)CCCOc1ccc(OC)c(Cc2cnc3nc(N)nc(N)c3c2C)c1`, in that order: 2.3, 3.4 nM, 6.5 nM, 4.2 nM and 1.8 nM.
In test [1], `COc1ccc(OCCCC(=O)O)c(Cc2cnc3nc(N)nc(N)c3c2C)c1` showed a Selectivity index of 28. The IC50 in test [2] was 2.3 nM; in test [6], 5300 nM; in test [3] it was 0.17 nM; in test [4] it was 9.1 nM; in test [5], 0.32 nM.
The compound `COc1ccc(OC)c(Cc2cnc3nc(N)nc(N)c3c2C)c1` [PIRITREXIM] yielded an IC50 in test [7] of 13 nM.
Turning to `CCOC(=O)CCCOc1ccc(OC)cc1Cc1cnc2nc(N)nc(N)c2c1C`, in test [1], the Selectivity index worked out at 17. The IC50 was 10 nM in test [2], 83 nM in test [3], 93 nM in test [4] and 5.6 nM in test [5].
For `COc1ccc(OCCCCCC(=O)O)cc1Cc1cnc2nc(N)nc(N)c2c1C`, in that order: 5.9, 2 nM, 1.3 nM, 2 nM and 0.35 nM.
The corresponding values for `COc1cc(Cc2cnc(N)nc2N)cc(C#CCCC(=O)O)c1Br` are 1300, 15 nM, 71 nM, 630 nM and 0.47 nM.
For `COc1ccc(I)c(Cc2cnc3nc(N)nc(N)c3c2C)c1`, in that order: 2.2, 5.8 nM, 3.8 nM, 4 nM and 1.8 nM.
Regarding `CCOC(=O)CCCCCOc1ccc(OC)c(Cc2cnc3nc(N)nc(N)c3c2C)c1`, the Selectivity index in test [1] came to 1.8. Moreover, the IC50 in test [2] is 13 nM; in test [3], 35 nM; in test [4] it was 21 nM; in test [5] it was 12 nM.
Turning to `COc1ccc(C#CCCCC(=O)O)cc1Cc1cnc2nc(N)nc(N)c2c1C`, in test [1], the Selectivity index worked out at 5.6. Moreover, the IC50 in test [2] was 4.3 nM; in test [7] it was 6100 nM; in test [3] it was 1.4 nM; in test [4], 5.7 nM; in test [5], 1 nM.
`Nc1nc(N)c2nc(CN3c4ccccc4C=Cc4c(C#CCCC(=O)O)cccc43)cnc2n1`: the Selectivity index in test [1] worked out at 190. Besides, the IC50 in test [2] was determined as 77 nM; in test [3] it was 230 nM; in test [4] it was 560 nM; in test [5], 2.9 nM.
